Experimental data published in patent US11491204B2, “Composition comprising poly I:C and LAG-3-IGG fusion protein” (CYTLIMIC INC., priority 2015, dated 2022).

Legend:
[1] = system: P815 tumor cells; experiment: Suppression effect of tumor growth by immunoadjuvant combination (P815 model); format: in vivo, DBA/2 mice
Source text: The following substances were used as adjuvants.
Poly I:C (TLR3 agonist) (Invivogen, SanDiego, USA)
RIBOXXOL (TLR3 agonist) (Riboxx, Radebeul, Germany)
MPL (TLR4 agonist) (Invivogen, SanDiego, USA)
Imiquimod (TLR7/8 agonist) (Invivogen, SanDiego, USA)
CpG (TLR9 agonist) (Invivogen, SanDiego, USA)
LAG-3 (Adipogen, SanDiego, USA)
P815 tumor cells were subcutaneously inoculated to DBA/2 mice in an amount of 5×10^5 cells per mouse to prepare cancer model mice. The day of inoculation was specified as Day 0. On Day 7, PIA CTL (2.5×10^5 cells per mouse) were intravenously injected. Day 8 and Day 15, an admixture of PIA peptide (50 μg per mouse) and an adjuvant in PBS was subcutaneously injected. Mice were divided into 9 groups each consisting of 4 or 5 mice and the following adjuvants were used respectively.
Group 1: PIA peptide alone (control)
(§1) Group 2: Poly IC (50 μg/mouse)
Group 3: Poly IC (50 μg/mouse)+LAG-3 (1 μg/mouse)
Group 4: No PIA peptide, Poly IC (50 μg/mouse)+LAG-3 (1 μg/mouse) alone
Group 5: RIBOXXOL (100 μg/mouse)
Group 6: RIBOXXOL (100 μg/mouse)+LAG-3 (1 μg/mouse)
Group 7: MPL (10 μg/mouse)+LAG-3 (1 μg/mouse)
Group 8: Imiquimod (50 μg/mouse)+LAG-3 (1 μg/mouse)
Group 9: CpG (10 μg/mouse)+LAG-3 (1 μg/mouse)

[2] = system: B16-F10 melanoma cells; experiment: Tumor growth inhibitory effect by combination of immuno-adjuvants, B16-F10 melanoma inoculation model mice; format: in vivo, C57BL/6 mice
Description: To C57BL/6 mice, B16-F10 melanoma cells (1×10^5 cells per mouse) were subcutaneously inoculated to prepare cancer model mice.
The day of inoculation was specified as Day 0. On Day 5 and Day 12, twice in total, an admixture of gp100 peptide (50 μg per mouse) and an adjuvant in PBS was subcutaneously injected. The following adjuvants were used in respective mice groups.
Group 1: IFA (50 μL/mouse)
as §1
Group 3: LAG-3 (1 μg/mouse)
Group 4: LAG-3 (1 μg/mouse)+Poly IC (50 μg/mouse)

[3] = system: P815 tumor cells; experiment: Cancer vaccine: comparison of adjuvants with P1A peptide in P815-grafted DBA/2 mice; format: in vivo; conditions: groups of 5 mice; P1A CTL i.v. Day 8; P1A peptide 50 μg + adjuvant s.c. Day 9 and Day 16
Source text: In accordance with the protocol shown in FIG. 1, the effects of adjuvants in cancer vaccines using a cancer-antigen derived peptide were compared.
As cancer model mice, DBA/2 mice, to which P815 cells (DBA/2mouse-derived mouse mastocytoma) were grafted, were put in use.
As a cancer-antigen derived peptide, a peptide (hereinafter referred to as “PIA peptide”) consisting of a partial sequence of PIA protein was used, which is a tumor antigen of P815 tumor and known to be restrictively presented by an MHC H-2Ld. The amino acid sequence of P1A peptide are represented by LPYLGWLVF (SEQ. ID No: 1).
As P1A CTL, a T cell expressing a T cell receptor and recognizing P1A peptide was used. […] Based on the positive ratio, the number of P1A-CTL cells was determined and administered.
As the adjuvants, the following substances were used. • Whole pertussis bacterial cell (PT) (BioFarma, Bandung, Indonesia) • Poly I:C (TLR3 agonist) (Invivogen, SanDiego, USA) • CpG (TLR9 agonist) (Invivogen, SanDiego, USA) • IFA (incomplete Freund's adjuvant) (Seppic, Paris, France) • LAG-3 (Adipogen, SanDiego, USA) Method
P815 tumor cells were subcutaneously inoculated to DBA/2 mice in an amount of 5×10^5 cells per mouse. The day of inoculation was specified as Day 0. On Day 8, P1A CTL (2.5×10^5 cells per mouse) were intravenously injected. […]

Row | Substance | Day up to which all mice died ([1]; 5 out of 5 mice, PIA peptide without adjuvant) | effect of extending survival time (in words) ([2]; Poly IC and LAG-3 alone compared to IFA group, combination compared to IFA, Poly IC and LAG-3 groups) | Day on which five mice all died ([2]; gp100 peptide 50 μg + adjuvant s.c. Day 5 and Day 12) | number of mice survived until Day 70 without increasing tumor size [3] | mice survived (out of 5) ([1]; with PIA peptide 50 μg s.c. Day 8 and Day 15, time point apparently Day 40)
1 | LPYLGWLVF (listed as Mus musculus) [PIA peptide alone] | ≤ 40 days |  |  |  | 
2 | Polyinosinic:polycytidylic acid [Poly IC] |  | a significant effect of extending survival time was not observed | 35 days | 1 | Four
